Source: PubChem BioAssay (NCI)
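Cells were grown in 96-well plates and exposed to each compound for 48 hours at five concentrations; endpoints were interpolated linearly between bracketing concentrations, or set to the highest concentration if not reached. The concentration for full growth arrest is given as TGI.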

Assays:
Assay in all cases: NCI tumour cell line growth inhibition, 48 h
[1] = tested on: HL-60(TB) leukemia
[2] = tested on: HOP-62 NSCLC
[3] = tested on: KM12 colon
[4] = tested on: NCI-H460 lung
[5] = tested on: RPMI-8226 leukemia
[6] = tested on: SF-268 CNS
[7] = tested on: SF-539 CNS
[8] = tested on: SK-OV-3 ovarian
[9] = tested on: UACC-62 melanoma
[10] = tested on: OVCAR-4 ovarian

With CCCCCCOP(=O)(OCCCCCC)C(NC(=O)OCC)(C(F)(F)F)C(F)(F)F the TGI [1] was > 100 µM, the TGI [2] was > 100 µM and the TGI [3] was > 100 µM. The TGI [4] was > 100 µM, the TGI [5] was > 100 µM and the TGI [6] was > 100 µM. The TGI [7] was > 100 µM, the TGI [8] was > 100 µM and the TGI [9] was > 100 µM.
In the case of CC(=O)O[C@@H]1C2=C(C)C=C(O2)[C@H]2O[C@]2(C)C[C@H]2C=C(C(=O)O2)[C@H](OC(C)=O)CC1[C@@]1(C)CO1 (stereo partly specified), the TGI [2] is reported as 57.9 µM, the TGI [3] is reported as > 100 µM and the TGI [4] is reported as > 100 µM. The TGI [10] was > 100 µM, the TGI [5] was 33.9 µM and the TGI [6] was > 100 µM. The TGI [7] was 83.4 µM, the TGI [8] was > 100 µM and the TGI [9] was 56.3 µM.
With COCOc1c(C(O[Si](C)(C)C(C)(C)C)c2cnc(Sc3ccccc3)n2C)ccc(OC)c1OC (stereo unspecified) the TGI [2] was 3.61 µM, the TGI [3] was 3.93 µM and the TGI [4] was 3.02 µM. For the same compound, the TGI [10] was 16.2 µM, the TGI [5] was 4.77 µM and the TGI [6] was 3.34 µM. For the same compound, the TGI [7] was 3.71 µM, the TGI [8] was 7.74 µM and the TGI [9] was 3.91 µM.
With CN(C)c1nncc2[nH]cnc12 the TGI [1] was > 100 µM, the TGI [2] was > 100 µM and the TGI [3] was > 100 µM. The TGI [4] was > 100 µM, the TGI [5] was > 100 µM and the TGI [6] was > 100 µM. The TGI [7] was > 100 µM and the TGI [9] was > 100 µM.
In the case of Cc1cc(C)c2c(n1)S(=O)(=O)N(CCCN1CCN(c3cccc(C(F)(F)F)c3)CC1)c1c-2nn(C)c1C, the TGI [1] is reported as > 100 µM, the TGI [2] is reported as > 100 µM and the TGI [3] is reported as > 100 µM. For the same compound, the TGI [4] was > 100 µM, the TGI [10] was > 100 µM and the TGI [6] was > 100 µM. For the same compound, the TGI [7] was > 100 µM, the TGI [8] was > 100 µM and the TGI [9] was > 100 µM.
With Fc1ccc2nc3n(c2c1)C(c1c(Cl)cccc1Cl)SC3 (stereo unspecified) the TGI [2] was > 100 µM, the TGI [3] was > 100 µM and the TGI [4] was > 100 µM. For the same compound, the TGI [10] was > 100 µM, the TGI [5] was > 100 µM and the TGI [6] was > 100 µM. For the same compound, the TGI [7] was > 100 µM, the TGI [8] was > 100 µM and the TGI [9] was > 100 µM.
c1csc(-c2cc(-c3cccs3)c(-c3cccs3)s2)c1 was tested, and the TGI [2] was > 100 µM, the TGI [3] was > 100 µM and the TGI [4] was > 100 µM. The TGI [10] was > 100 µM, the TGI [6] was > 100 µM and the TGI [7] was > 100 µM. For the same compound, the TGI [8] was > 100 µM and the TGI [9] was > 100 µM.
In the case of O=C1/C(=C/c2ccccc2O)N=C(c2ccccc2)N1c1nc2ccccc2s1, the TGI [1] is reported as 2.97 µM, the TGI [2] is reported as > 100 µM and the TGI [3] is reported as > 100 µM. The TGI [4] was 56.4 µM, the TGI [10] was > 100 µM and the TGI [5] was 49.3 µM. The TGI [6] was 77.7 µM, the TGI [7] was 57 µM and the TGI [8] was > 100 µM.
COC(=O)c1ccc(C)cc1/C=C1\Cc2ccc(C)cc2C1=O showed a TGI [1] of 18.2 µM, a TGI [2] of 39.5 µM and a TGI [3] of 33.8 µM. The TGI [4] was > 100 µM, the TGI [10] was 46.1 µM and the TGI [5] was 39.6 µM. For the same compound, the TGI [6] was 48.4 µM, the TGI [7] was 28.3 µM and the TGI [9] was 26.7 µM.
In the case of CC(C)C1=CCC2C(=C1)CCC1C(C)(C(=O)O)CCCC21C (stereo unspecified) (tested in a mixture with another compound), the TGI [1] is reported as > 100 µM, the TGI [2] is reported as > 100 µM and the TGI [3] is reported as > 100 µM. For the same compound, the TGI [10] was > 100 µM, the TGI [5] was 70.2 µM and the TGI [6] was > 100 µM. For the same compound, the TGI [7] was > 100 µM, the TGI [8] was > 100 µM and the TGI [9] was > 100 µM.
In the case of N=c1c2c(-c3ccccc3)c[nH]c2ncn1N, the TGI [1] is reported as > 100 µM, the TGI [2] is reported as > 100 µM and the TGI [3] is reported as > 100 µM. For the same compound, the TGI [10] was > 100 µM, the TGI [5] was > 100 µM and the TGI [7] was > 100 µM. The TGI [8] was > 100 µM and the TGI [9] was > 100 µM.
